Assay [1] concerns the target T1, CDK6-CYCLIND3 (Homo sapiens, UniProt Q00534).
T1 construct: purchased Carna
The assay is described as follows: Microfluidic LabChip kinase inhibition assay, CDK6-CyclinD3. In kind it is biochemical. Conditions: 300 μM ATP.

Assay [2] concerns the target CDK4-CYCLIND1 (Homo sapiens, UniProt P11802). Nature of the assay: Microfluidic LabChip kinase inhibition assay, CDK4-CyclinD1. Conditions: 200 μM ATP.
Protocol: Inhibition assays were performed using microfluidic LabChip 300 Drug Discovery System from Caliper Life Sciences. […] The assay has a total volume of 10 μL consisting of 5 μL of enzyme and buffer and 5 μL of substrate and buffer. The test compounds were diluted in 100% dimethylsulfoxide (DMSO) using 3-fold dilution steps. […] Compounds were tested in a single well for each dilution and the final concentration of DMSO was maintained at 1%.
The assay buffer contained 100 mM HEPES, pH 7.5, 0.01% Triton X-100, 0.1% bovine serum albumin (BSA), 5 mM MgCl2; 1 mM dithiothreitol (DTT), 10 μM sodium orthovanadate, and 10 μM β-glycerophosphate.
The assay was conducted by adding 5 μL of enzyme, adenosine triphosphate (ATP) and buffer to an assay plate. A 100 nL aliquot of the diluted compounds were added to the plate. The assay was initiated by the addition of 5 μL of phosphoenolpyruvate substrate (PEP) in buffer. […] The reaction was terminated by the addition of EDTA. The plates were analyzed using a Caliper LabChip 3000.
The mark [3] stands for this setting: Table 3a, read-out: CDK6 CyclinD3 IC50.
Where [4] appears, read: Table 3b, read-out: CDK6 CyclinD3 IC50.
The mark [5] stands for this setting: CDK4 CyclinD1 IC50 (μM), Table 3a, second value in parentheses on the next line.
Where [6] appears, read: CDK4 CyclinD1 IC50 (μM), Table 3b, second value in parentheses on the next line.
[7] abbreviates: Table 2, 2 nM enzyme, read-out: CDK6 IC50.
The mark [8] stands for this setting: CDK4 IC50 (μM), Table 2, 1 nM enzyme.

Each structure is given as a SMILES string. Where two headings read alike, the source gives them in different places.

This passage reports IC50 results from patent US20230065740A1, “CYCLIN-DEPENDENT KINASE INHIBITORS” (SPV THERAPEUTICS INC., priority 2018, published 2023).

Usually IC50 stands for the concentration at which inhibition is half-maximal.

Sequence of CDK4-CYCLIND1 (P11802 whole entry): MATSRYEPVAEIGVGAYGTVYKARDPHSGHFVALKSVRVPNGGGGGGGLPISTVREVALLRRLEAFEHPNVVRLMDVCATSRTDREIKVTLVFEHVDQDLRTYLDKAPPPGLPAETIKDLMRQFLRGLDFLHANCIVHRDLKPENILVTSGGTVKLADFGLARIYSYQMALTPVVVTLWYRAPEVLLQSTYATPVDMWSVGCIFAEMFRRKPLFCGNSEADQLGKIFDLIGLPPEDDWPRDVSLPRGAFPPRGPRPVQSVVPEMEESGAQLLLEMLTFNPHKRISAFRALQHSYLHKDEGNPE
Sequence of CDK4-CYCLIND1 (P24385 whole entry partner): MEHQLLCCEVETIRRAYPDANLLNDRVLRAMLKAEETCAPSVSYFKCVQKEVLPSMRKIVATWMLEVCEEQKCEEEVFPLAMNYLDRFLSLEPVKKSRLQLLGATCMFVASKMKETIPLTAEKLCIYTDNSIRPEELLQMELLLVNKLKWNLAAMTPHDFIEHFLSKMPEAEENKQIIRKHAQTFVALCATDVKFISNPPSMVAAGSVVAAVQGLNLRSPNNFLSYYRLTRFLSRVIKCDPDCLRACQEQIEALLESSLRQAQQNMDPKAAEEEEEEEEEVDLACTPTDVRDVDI
T1 sequence (Q00534 whole entry): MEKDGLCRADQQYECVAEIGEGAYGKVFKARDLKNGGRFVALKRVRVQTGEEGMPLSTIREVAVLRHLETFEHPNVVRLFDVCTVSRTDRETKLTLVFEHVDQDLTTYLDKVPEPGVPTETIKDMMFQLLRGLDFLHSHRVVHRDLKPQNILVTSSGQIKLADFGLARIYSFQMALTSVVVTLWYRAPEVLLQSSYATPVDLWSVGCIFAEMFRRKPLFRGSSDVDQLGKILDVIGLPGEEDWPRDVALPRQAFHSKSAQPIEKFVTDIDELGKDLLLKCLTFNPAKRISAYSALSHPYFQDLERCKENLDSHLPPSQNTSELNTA
T1 sequence (P30281 whole entry partner): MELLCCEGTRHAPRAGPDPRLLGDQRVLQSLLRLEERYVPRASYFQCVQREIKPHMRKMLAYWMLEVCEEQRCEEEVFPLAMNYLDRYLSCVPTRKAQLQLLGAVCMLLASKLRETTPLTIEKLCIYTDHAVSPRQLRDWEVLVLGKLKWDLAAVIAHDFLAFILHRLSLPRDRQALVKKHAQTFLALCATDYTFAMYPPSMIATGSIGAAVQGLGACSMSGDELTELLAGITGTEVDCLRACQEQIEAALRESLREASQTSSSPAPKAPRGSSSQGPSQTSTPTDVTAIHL

Regarding `O=C1NCCC12Cc1cnc(Nc3ccc(N4CCNCC4)c(F)c3)nc1N2C1CCCC1` (single isomer, unassigned) [Compound C203, 7′-cyclopentyl-2′-((3-fluoro-4-(piperazin-1-yl)phenyl)amino)-5′,7′-dihydrospiro[pyrrolidine-3,6′-pyrrolo[2,3-d]pyrimidin]-2-one], the IC50 stood at 0.104 µM in assay [1] (setting [3]), 0.104 µM in assay [1] (setting [4]), 0.0245 µM in assay [2] (setting [5]) and 0.0245 µM in assay [2] (setting [6]).
On to `O=C1NCCC12Cc1cnc(Nc3ccc(N4CCNCC4)c(F)c3)nc1N2C1CCCC1` (single isomer, unassigned) [Compound C204, 7′-cyclopentyl-2′-((3-fluoro-4-(piperazin-1-yl)phenyl)amino)-5′,7′-dihydrospiro[pyrrolidine-3,6′-pyrrolo[2,3-d]pyrimidin]-2-one], for which the IC50 came out at 11.8 µM in assay [1] (setting [3]), 11.8 µM in assay [1] (setting [4]), 2.03 µM in assay [2] (setting [5]) and 2.03 µM in assay [2] (setting [6]).
Turning to `CN1CCN(c2ccc(Nc3ncc4c(n3)N(C3CCCC3)C3(CCNC3=O)C4)cc2F)CC1` (single isomer, unassigned) [Compound C205, 7′-cyclopentyl-2′-((3-fluoro-4-(4-methylpiperazin-1-yl)phenyl)amino)-5′,7′-dihydrospiro[pyrrolidine-3,6′-pyrrolo[2,3-d]pyrimidin]-2-one], the IC50 in assay [1] (setting [3]) amounted to 0.179 µM; in assay [1] (setting [4]), 0.179 µM; in assay [2] (setting [5]), 0.0413 µM; in assay [2] (setting [6]) it was 0.0413 µM.
For `CN1CCN(c2ccc(Nc3ncc4c(n3)N(C3CCCC3)C3(CCNC3=O)C4)cc2F)CC1` (single isomer, unassigned) [Compound C206, 7′-cyclopentyl-2′-((3-fluoro-4-(4-methylpiperazin-1-yl)phenyl)amino)-5′,7′-dihydrospiro[pyrrolidine-3,6′-pyrrolo[2,3-d]pyrimidin]-2-one], the IC50 was 15.8 µM in assay [1] (setting [3]), 15.8 µM in assay [1] (setting [4]), 5.14 µM in assay [2] (setting [5]) and 5.14 µM in assay [2] (setting [6]).
With `CN1CCN(c2ccc(Nc3ncc4c(n3)N(C3CCCC3)C3(CCN(C)C3=O)C4)cc2)CC1` (stereo not drawn) [Compound C1, 7′-cyclopentyl-1-methyl-2′-((4-(4-methylpiperazin-1-yl)phenyl)amino)-5′,7′-dihydrospiro[pyrrolidine-3,6′-pyrrolo[2,3-d]pyrimidin]-2-one], the half-inhibitory concentration (IC50) was 19.1 µM in assay [1] (setting [7]) and 4.74 µM in assay [2] (setting [8]).
In the case of `CN1CCC2(Cc3cnc(Nc4ccc(N5CCNCC5)cc4)nc3N2C2CCCC2)C1=O` (stereo not drawn) [Compound C2, 7′-cyclopentyl-1-methyl-2′-((4-(piperazin-1-yl)phenyl)amino)-5′,7′-dihydrospiro[pyrrolidine-3,6′-pyrrolo[2,3-d]pyrimidin]-2-one], the IC50 in assay [1] (setting [7]) stood at 23.8 µM; in assay [2] (setting [8]), 5.16 µM.
On to `CC(C)N1CCN(c2ccc(Nc3ncc4c(n3)N(C3CCCC3)C3(CCN(C)C3=O)C4)nc2)CC1` (stereo not drawn) [Compound C3, 7′-cyclopentyl-2′-((5-(4-isopropylpiperazin-1-yl)pyridin-2-yl)amino)-1-methyl-5′,7′-dihydrospiro[pyrrolidine-3,6′-pyrrolo[2,3-d]pyrimidin]-2-one], for which the IC50 in assay [1] (setting [7]) and in assay [2] (setting [8]) was greater than 30 µM in each case.
Regarding `CN(C)CCOc1ccc(Nc2ncc3c(n2)N(C2CCCC2)C2(CCN(C)C2=O)C3)nc1` (stereo not drawn) [Compound C4, 7′-cyclopentyl-2′-((5-(2-(dimethylamino)ethoxy)pyridin-2-yl)amino)-1-methyl-5′,7′-dihydrospiro[pyrrolidine-3,6′-pyrrolo[2,3-d]pyrimidin]-2-one], the IC50 in assay [1] (setting [7]) and in assay [2] (setting [8]) was greater than 30 µM in each case.
For the compound `CN1CCC2(Cc3cnc(Nc4ccc(OCCN5CCCC5)cn4)nc3N2C2CCCC2)C1=O` (stereo not drawn) [Compound C5, 7′-cyclopentyl-1-methyl-2′-((5-(2-(pyrrolidin-1-yl)ethoxy)pyridin-2-yl)amino)-5′,7′-dihydrospiro[pyrrolidine-3,6′-pyrrolo[2,3-d]pyrimidin]-2-one], the IC50 in assay [1] (setting [7]) and in assay [2] (setting [8]) was greater than 30 µM each time.
For the compound `CN1CCC2(Cc3cnc(Nc4ccc(OCCN5CCCCC5)cn4)nc3N2C2CCCC2)C1=O` (stereo not drawn) [Compound C6, 7′-cyclopentyl 1-methyl-2′-((5-(2-(piperidin-1-yl)ethoxy)pyridin-2-yl)amino)-5′,7′-dihydrospiro[pyrrolidine-3,6′-pyrrolo[2,3-d]pyrimidin]-2-one], the IC50 in assay [1] (setting [7]) and in assay [2] (setting [8]) was greater than 30 µM each time.
For the compound `CN1CCN(c2ccc(Nc3ncc4c(n3)N(C3CCCC3)C3(CCCN(C)C3=O)C4)cc2)CC1` (stereo not drawn) [Compound C7, 7′-cyclopentyl-1-methyl-2′-((4-(4-methylpiperazin-1-yl)phenyl)amino)-5′,7′-dihydrospiro[piperidine-3,6′-pyrrolo[2,3-d]pyrimidin]-2-one], the IC50 in assay [1] (setting [7]) and in assay [2] (setting [8]) was greater than 30 µM each time.
For `CN1CCCC2(Cc3cnc(Nc4ccc(N5CCNCC5)cc4)nc3N2C2CCCC2)C1=O` (stereo not drawn) [Compound C8, 7′-cyclopentyl-1-methyl-2′-((4-(piperazin-1-yl)phenyl)amino)-5′,7′-dihydrospiro[piperidine-3,6′-pyrrolo[2,3-d]pyrimidin]-2-one], the IC50 in assay [1] (setting [7]) and in assay [2] (setting [8]) was greater than 30 µM throughout.
With `CC(C)N1CCN(c2ccc(Nc3ncc4c(n3)N(C3CCCC3)C3(CCCN(C)C3=O)C4)nc2)CC1` (stereo not drawn) [Compound C9, 7′-cyclopentyl-2′-((5-(4-isopropylpiperazin-1-yl)pyridin-2-yl)amino)-1-methyl-5′,7′-dihydrospiro[piperidine-3,6′-pyrrolo[2,3-d]pyrimidin]-2-one], the IC50 in assay [1] (setting [7]) and in assay [2] (setting [8]) was greater than 30 µM in each case.
In the case of `CN1CCCC2(Cc3cnc(Nc4ccc(OCCN5CCCC5)cn4)nc3N2C2CCCC2)C1=O` (stereo not drawn) [Compound C10, 7′-cyclopentyl-1-methyl-2′-((5-(2-(pyrrolidin-1-yl)ethoxy)pyridin-2-yl)amino)-5′,7′-dihydrospiro[piperidine-3,6′-pyrrolo[2,3-d]pyrimidin]-2-one], the IC50 in assay [1] (setting [7]) and in assay [2] (setting [8]) was greater than 30 µM each time.
On to `CN1CCCC2(Cc3cnc(Nc4ccc(OCCN5CCCCC5)cn4)nc3N2C2CCCC2)C1=O` (stereo not drawn) [Compound C11, 7′-cyclopentyl-1-methyl-2′-((5-(2-(piperidin-1-yl)ethoxy)pyridin-2-yl)amino)-5′,7′-dihydrospiro[piperidine-3,6′-pyrrolo[2,3-d]pyrimidin]-2-one], for which the IC50 in assay [1] (setting [7]) and in assay [2] (setting [8]) was greater than 30 µM in each case.
With `COc1ccc(CN2CCC3(Cc4cnc(Nc5ccc(N6CCN(C)CC6)cc5)nc4N3C3CCCC3)C2=O)cc1` (stereo not drawn) [Compound C12, 7′-cyclopentyl-1-(4-methoxybenzyl)-2′-((4-(4-methylpiperazin-1-yl)phenyl)amino)-5′,7′-dihydrospiro[pyrrolidine-3,6′-pyrrolo[2,3-d]pyrimidin]-2-one], the IC50 in assay [1] (setting [7]) was greater than 30 µM; in assay [2] (setting [8]), 1.96 µM.
As for `CN1CCN(c2cnc(Nc3ncc4c(n3)N(C3CCCC3)C3(CCN(C)C3=O)C4)cc2C(F)(F)F)CC1` (stereo not drawn) [Compound C13, 7′-cyclopentyl-1-methyl-2′-((5-(4-methylpiperazin-1-yl)-4-(trifluoromethyl)pyridin-2-yl)amino)-5′,7′-dihydrospiro[pyrrolidine-3,6′-pyrrolo[2,3-d]pyrimidin]-2-one], the IC50 in assay [1] (setting [7]) and in assay [2] (setting [8]) was greater than 30 µM throughout.
In the case of `CN1CCCC2(Cc3cnc(Nc4cc(C(F)(F)F)c(N5CCNCC5)cn4)nc3N2C2CCCC2)C1=O` (stereo not drawn) [Compound C14, 7′-cyclopentyl-1-methyl-2′-((5-(piperazin-1-yl)-4-(trifluoromethyl)pyridin-2-yl)amino)-5′,7′-dihydrospiro[piperidine-3,6′-pyrrolo[2,3-d]pyrimidin]-2-one], the IC50 in assay [1] (setting [7]) and in assay [2] (setting [8]) was greater than 30 µM in each case.
For `CN1CCC2(Cc3cnc(Nc4cc(C(F)(F)F)c(N5CCNCC5)cn4)nc3N2C2CCCC2)C1=O` (stereo not drawn) [Compound C15, 7′-cyclopentyl-1-methyl-2′-((5-(piperazin-1-yl)-4-(trifluoromethyl)pyridin-2-yl)amino)-5′,7′-dihydrospiro[pyrrolidine-3,6′-pyrrolo[2,3-d]pyrimidin]-2-one], the IC50 in assay [1] (setting [7]) and in assay [2] (setting [8]) was greater than 30 µM throughout.
With `COc1ccc(CN2CCC3(Cc4cnc(Nc5cc(C(F)(F)F)c(N6CCNCC6)cn5)nc4N3C3CCCC3)C2=O)cc1` (stereo not drawn) [Compound C16, 7′-cyclopentyl-1-(4-methoxybenzyl)-2′-((5-(piperazin-1-yl)-4-(trifluoromethyl)pyridin-2-yl)amino)-5′,7′-dihydrospiro[pyrrolidine-3,6′-pyrrolo[2,3-d]pyrimidin]-2-one], the IC50 in assay [1] (setting [7]) is greater than 30 µM; in assay [2] (setting [8]) it was 13.1 µM.
In turn, `CN1CCN(c2ccc(Nc3ncc4c(n3)N(C3CCCC3)CC43CCNC3=O)nc2)CC1` (stereo not drawn) [Compound C98, 7′-cyclopentyl-2′-((5-(4-methylpiperazin-1-yl)pyridin-2-yl)amino)-6′,7′-dihydrospiro[pyrrolidine-3,5′-pyrrolo[2,3-d]pyrimidin]-2-one] gave an IC50 in assay [2] (setting [8]) of 57.6 µM.
In the case of `O=C1NCCC12C(=O)N(C1CCCC1)c1nc(Nc3ccc(N4CCNCC4)cn3)ncc12` (stereo not drawn) [Compound C99, 7′-cyclopentyl-2′-((5-(piperazin-1-yl)pyridin-2-yl)amino)spiro[pyrrolidine-3,5′-pyrrolo[2,3-d]pyrimidine]-2,6′(7′H)-dione], in assay [2] (setting [8]), the IC50 amounted to 59.4 µM.
With `CC(C)N1CCN(c2ccc(Nc3ncc4c(n3)N(C3CCCC3)C(=O)C43CCNC3=O)cc2F)CC1` (stereo not drawn) [Compound C104, 7′-cyclopentyl-2′-((3-fluoro-4-(4-isopropylpiperazin-1-yl)phenyl)amino)spiro[pyrrolidine-3,5′-pyrrolo[2,3-d]pyrimidine]-2,6′(7′H)-dione], in assay [2] (setting [8]), half-maximal inhibition (IC50) required 51 µM.
